In US10472352B2, “Rac inhibitors” (Geneyus LLC, priority 2017, dated 2019):
Read-outs that look alike come from different tables or passages of the source.

System: BT474 breast cancer cells
Assay: BT474 Four (4) Day Cell Viability Assay
Format: cell-based
Conditions: Homo sapiens, BT-474, 96 h, BT474, 4 days, read-out: cellular viability; for viability at 7.5 µM: 32661 7.5 μM; for viability at 10 µM: 32661 10 μM
Description: BT474 breast cancer cells that are Estrogen Receptor Positive and HER2+ were grown in 5% cFBS. 5,000 cells were seeded into each well of a 96-well plate and treated with escalating doses of lapatinib, fulvestrant, and 32661.

[1] = fulvestrant 0.0 nM, lapatinib 0.0 nM
[2] = fulvestrant 0.0 nM, lapatinib 6.9 nM
[3] = fulvestrant 0.0 nM, lapatinib 20.6 nM
[4] = fulvestrant 0.0 nM, lapatinib 61.7 nM
[5] = fulvestrant 0.0 nM, lapatinib 185.2 nM
[6] = fulvestrant 0.0 nM, lapatinib 555.6 nM
[7] = fulvestrant 0.0 nM, lapatinib 1666.7 nM
[8] = fulvestrant 0.0 nM, lapatinib 3333.0 nM
[9] = fulvestrant 6.9 nM, lapatinib 0.0 nM
[10] = fulvestrant 6.9 nM, lapatinib 6.9 nM
[11] = fulvestrant 6.9 nM, lapatinib 20.6 nM
[12] = fulvestrant 6.9 nM, lapatinib 61.7 nM
[13] = fulvestrant 6.9 nM, lapatinib 185.2 nM
[14] = fulvestrant 6.9 nM, lapatinib 555.6 nM
[15] = fulvestrant 6.9 nM, lapatinib 1666.7 nM
[16] = fulvestrant 6.9 nM, lapatinib 3333.0 nM
[17] = fulvestrant 20.6 nM, lapatinib 0.0 nM
[18] = fulvestrant 20.6 nM, lapatinib 6.9 nM
[19] = fulvestrant 20.6 nM, lapatinib 20.6 nM
[20] = fulvestrant 20.6 nM, lapatinib 61.7 nM
[21] = fulvestrant 20.6 nM, lapatinib 185.2 nM
[22] = fulvestrant 20.6 nM, lapatinib 555.6 nM
[23] = fulvestrant 20.6 nM, lapatinib 1666.7 nM
[24] = fulvestrant 20.6 nM, lapatinib 3333.0 nM
[25] = fulvestrant 61.7 nM, lapatinib 0.0 nM
[26] = fulvestrant 61.7 nM, lapatinib 6.9 nM
[27] = fulvestrant 61.7 nM, lapatinib 20.6 nM
[28] = fulvestrant 61.7 nM, lapatinib 61.7 nM
[29] = fulvestrant 61.7 nM, lapatinib 185.2 nM
[30] = fulvestrant 61.7 nM, lapatinib 555.6 nM
[31] = fulvestrant 61.7 nM, lapatinib 1666.7 nM
[32] = fulvestrant 61.7 nM, lapatinib 3333.0 nM
[33] = fulvestrant 185.2 nM, lapatinib 0.0 nM
[34] = fulvestrant 185.2 nM, lapatinib 6.9 nM
[35] = fulvestrant 185.2 nM, lapatinib 20.6 nM
[36] = fulvestrant 185.2 nM, lapatinib 61.7 nM
[37] = fulvestrant 185.2 nM, lapatinib 185.2 nM
[38] = fulvestrant 185.2 nM, lapatinib 555.6 nM
[39] = fulvestrant 185.2 nM, lapatinib 1666.7 nM
[40] = fulvestrant 185.2 nM, lapatinib 3333.0 nM
[41] = fulvestrant 555.6 nM, lapatinib 0.0 nM
[42] = fulvestrant 555.6 nM, lapatinib 6.9 nM
[43] = fulvestrant 555.6 nM, lapatinib 20.6 nM
[44] = fulvestrant 555.6 nM, lapatinib 61.7 nM
[45] = fulvestrant 555.6 nM, lapatinib 185.2 nM
[46] = fulvestrant 555.6 nM, lapatinib 555.6 nM
[47] = fulvestrant 555.6 nM, lapatinib 1666.7 nM
[48] = fulvestrant 555.6 nM, lapatinib 3333.0 nM
[49] = fulvestrant 1666.7 nM, lapatinib 0.0 nM
[50] = fulvestrant 1666.7 nM, lapatinib 6.9 nM
[51] = fulvestrant 1666.7 nM, lapatinib 20.6 nM
[52] = fulvestrant 1666.7 nM, lapatinib 61.7 nM
[53] = fulvestrant 1666.7 nM, lapatinib 185.2 nM
[54] = fulvestrant 1666.7 nM, lapatinib 555.6 nM
[55] = fulvestrant 1666.7 nM, lapatinib 1666.7 nM
[56] = fulvestrant 1666.7 nM, lapatinib 3333.0 nM
[57] = fulvestrant 3333.0 nM, lapatinib 0.0 nM
[58] = fulvestrant 3333.0 nM, lapatinib 6.9 nM
[59] = fulvestrant 3333.0 nM, lapatinib 20.6 nM
[60] = fulvestrant 3333.0 nM, lapatinib 61.7 nM
[61] = fulvestrant 3333.0 nM, lapatinib 185.2 nM
[62] = fulvestrant 3333.0 nM, lapatinib 555.6 nM
[63] = fulvestrant 3333.0 nM, lapatinib 1666.7 nM
[64] = fulvestrant 3333.0 nM, lapatinib 3333.0 nM

Structure (SMILES): FC(F)(F)c1ccc2c(SCCCCCCn3cnc(CN4CCOCC4)c3)ccnc2c1 [Compound 0032661, 4-[[1-[6-[[7-(trifluoromethyl)-4-quinolyl]sulfanyl]hexyl]imidazol-4-yl]methyl]morpholine]
- viability at 5 µM (32661 5 μM, fulvestrant 3333.0 nM, lapatinib 3333.0 nM): 1%
- viability at 7.5 µM [1]: 84%
- viability at 7.5 µM [2]: 76%
- viability at 7.5 µM [3]: 74%
- viability at 7.5 µM [4]: 65%
- viability at 7.5 µM [5]: 50%
- viability at 7.5 µM [6]: 30%
- viability at 7.5 µM [7]: 14%
- viability at 7.5 µM [8]: 12%
- viability at 7.5 µM [9]: 81%
- viability at 7.5 µM [10]: 72%
- viability at 7.5 µM [11]: 71%
- viability at 7.5 µM [12]: 64%
- viability at 7.5 µM [13]: 52%
- viability at 7.5 µM [14]: 27%
- viability at 7.5 µM [15]: 12%
- viability at 7.5 µM [16]: 9%
- viability at 7.5 µM [17]: 75%
- viability at 7.5 µM [18]: 73%
- viability at 7.5 µM [19]: 67%
- viability at 7.5 µM [20]: 62%
- viability at 7.5 µM [21]: 50%
- viability at 7.5 µM [22]: 23%
- viability at 7.5 µM [23]: 12%
- viability at 7.5 µM [24]: 4%
- viability at 7.5 µM [25]: 76%
- viability at 7.5 µM [26]: 66%
- viability at 7.5 µM [27]: 61%
- viability at 7.5 µM [28]: 58%
- viability at 7.5 µM [29]: 52%
- viability at 7.5 µM [30]: 24%
- viability at 7.5 µM [31]: 12%
- viability at 7.5 µM [32]: 4%
- viability at 7.5 µM [33]: 74%
- viability at 7.5 µM [34]: 64%
- viability at 7.5 µM [35]: 61%
- viability at 7.5 µM [36]: 54%
- viability at 7.5 µM [37]: 48%
- viability at 7.5 µM [38]: 24%
- viability at 7.5 µM [39]: 10%
- viability at 7.5 µM [40]: 5%
- viability at 7.5 µM [41]: 76%
- viability at 7.5 µM [42]: 59%
- viability at 7.5 µM [43]: 52%
- viability at 7.5 µM [44]: 45%
- viability at 7.5 µM [45]: 38%
- viability at 7.5 µM [46]: 19%
- viability at 7.5 µM [47]: 3%
- viability at 7.5 µM [48]: 1%
- viability at 7.5 µM [49]: 69%
- viability at 7.5 µM [50]: 35%
- viability at 7.5 µM [51]: 28%
- viability at 7.5 µM [52]: 25%
- viability at 7.5 µM [53]: 21%
- viability at 7.5 µM [54]: 12%
- viability at 7.5 µM [55]: 2%
- viability at 7.5 µM [56]: 0%
- viability at 7.5 µM [57]: 49%
- viability at 7.5 µM [58]: 16%
- viability at 7.5 µM [59]: 13%
- viability at 7.5 µM [60]: 11%
- viability at 7.5 µM [61]: 7%
- viability at 7.5 µM [62]: 2%
- viability at 7.5 µM [63]: 3%
- viability at 7.5 µM [64]: 1%
- viability at 10 µM [1]: 90%
- viability at 10 µM [2]: 42%
- viability at 10 µM [3]: 38%
- viability at 10 µM [4]: 35%
- viability at 10 µM [5]: 28%
- viability at 10 µM [6]: 28%
- viability at 10 µM [7]: 23%
- viability at 10 µM [8]: 5%
- viability at 10 µM [9]: 90%
- viability at 10 µM [10]: 38%
- viability at 10 µM [11]: 35%
- viability at 10 µM [12]: 33%
- viability at 10 µM [13]: 27%
- viability at 10 µM [14]: 24%
- viability at 10 µM [15]: 20%
- viability at 10 µM [16]: 3%
- viability at 10 µM [17]: 89%
- viability at 10 µM [18]: 36%
- viability at 10 µM [19]: 36%
- viability at 10 µM [20]: 33%
- viability at 10 µM [21]: 28%
- viability at 10 µM [22]: 23%
- viability at 10 µM [23]: 20%
- viability at 10 µM [24]: 3%
- viability at 10 µM [25]: 86%
- viability at 10 µM [26]: 37%
- viability at 10 µM [27]: 35%
- viability at 10 µM [28]: 33%
- viability at 10 µM [29]: 27%
- viability at 10 µM [30]: 23%
- viability at 10 µM [31]: 20%
- viability at 10 µM [32]: 2%
- viability at 10 µM [33]: 86%
- viability at 10 µM [34]: 33%
- viability at 10 µM [35]: 33%
- viability at 10 µM [36]: 31%
- viability at 10 µM [37]: 24%
- viability at 10 µM [38]: 23%
- viability at 10 µM [39]: 18%
- viability at 10 µM [40]: 1%
- viability at 10 µM [41]: 81%
- viability at 10 µM [42]: 31%
- viability at 10 µM [43]: 29%
- viability at 10 µM [44]: 29%
- viability at 10 µM [45]: 24%
- viability at 10 µM [46]: 23%
- viability at 10 µM [47]: 18%
- viability at 10 µM [48]: 1%
- viability at 10 µM [49]: 78%
- viability at 10 µM [50]: 16%
- viability at 10 µM [51]: 16%
- viability at 10 µM [52]: 15%
- viability at 10 µM [53]: 16%
- viability at 10 µM [54]: 15%
- viability at 10 µM [55]: 7%
- viability at 10 µM [56]: 0%
- viability at 10 µM [57]: 55%
- viability at 10 µM [58]: 3%
- viability at 10 µM [59]: 3%
- viability at 10 µM [60]: 6%
- viability at 10 µM [61]: 2%
- viability at 10 µM [62]: 2%
- viability at 10 µM [63]: 1%
- viability at 10 µM [64]: 0%
